Measured values as given in patent publication US9926304B2, “1-(arylmethyl)quinazoline-2,4(1H,3H)-diones as PARP inhibitors and the use thereof” (Impact Therapeutics, Inc., priority 2011, dated 2018).

What was measured:
[1] = tested on: Human breast cancer cell line T47D; assay: Cell based caspase-3 activity assay: potentiation of MMS induced apoptosis; details: Homo sapiens, T47D, 24 h, T47D cells, 11.1 μg/ml MMS, 24 hours, intracellular caspase-3 activity; read-out: EC50 (nM), potentiation of the apoptosis inducing activity of MMS
Method in brief: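 T47D cells were exposed for 24 h to compound plus a minimally apoptotic MMS dose (medium containing 11.1 μg/ml MMS). Lysates were incubated 3 h at 37 °C with (Ac-DEVD)2-R110 caspase-3 substrate (20 μM in added buffer) and read at ex 496/em 520 nm. EC50 came from a sigmoidal fit of RFU versus log concentration.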

PARP-1 enzyme = target: T1, PARP-1 enzyme (Homo sapiens, UniProt P09874); assay: PARP-1 enzymatic activity assay (Trevigen 96-well kit 4676-096-K); format: biochemical; details: 0.5 unit PARP-1, histone pre-coated plate, 60 min at room temperature; read-out: IC50 (nM), inhibitory effect on PARP-1 enzymatic activity
T1 construct: purchased Trevigen, Inc. 4676-096-K
T1 sequence (P09874 whole entry): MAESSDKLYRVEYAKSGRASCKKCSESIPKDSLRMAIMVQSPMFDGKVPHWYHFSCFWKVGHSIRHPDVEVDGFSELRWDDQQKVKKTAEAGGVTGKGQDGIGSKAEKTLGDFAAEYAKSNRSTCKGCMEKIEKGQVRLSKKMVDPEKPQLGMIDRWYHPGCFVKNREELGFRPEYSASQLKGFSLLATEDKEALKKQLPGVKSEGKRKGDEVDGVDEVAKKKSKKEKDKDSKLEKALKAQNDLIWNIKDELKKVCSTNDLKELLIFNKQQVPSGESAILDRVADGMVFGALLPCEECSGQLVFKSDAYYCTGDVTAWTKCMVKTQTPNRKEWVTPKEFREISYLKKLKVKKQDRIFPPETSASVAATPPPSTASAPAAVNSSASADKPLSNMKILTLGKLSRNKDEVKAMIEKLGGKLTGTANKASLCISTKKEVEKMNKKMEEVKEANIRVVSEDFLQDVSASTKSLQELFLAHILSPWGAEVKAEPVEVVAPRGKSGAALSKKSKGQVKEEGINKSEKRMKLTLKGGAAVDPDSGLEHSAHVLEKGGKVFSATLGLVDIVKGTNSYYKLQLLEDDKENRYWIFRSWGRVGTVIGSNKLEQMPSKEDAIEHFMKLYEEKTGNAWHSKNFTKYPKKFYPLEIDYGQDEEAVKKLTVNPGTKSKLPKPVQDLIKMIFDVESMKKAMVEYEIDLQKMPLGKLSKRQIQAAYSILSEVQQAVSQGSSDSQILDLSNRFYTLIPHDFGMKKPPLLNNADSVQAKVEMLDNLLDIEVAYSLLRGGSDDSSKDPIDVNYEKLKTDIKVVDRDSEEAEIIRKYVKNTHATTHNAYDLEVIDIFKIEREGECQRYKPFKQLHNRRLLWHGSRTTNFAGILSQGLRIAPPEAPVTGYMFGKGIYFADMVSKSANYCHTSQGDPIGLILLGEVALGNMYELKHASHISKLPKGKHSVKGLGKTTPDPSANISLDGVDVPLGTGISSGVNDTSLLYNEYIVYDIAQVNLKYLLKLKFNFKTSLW
Source text: Measurement of the inhibitory effect of 1-(3-(4-(pyrimidin-2-yl)piperazine-1-carbonyl)benzyl)quinazoline-2,4(1H,3H)-dione and analogs on PARP-1 enzymatic activity
Briefly, PARP-1 catalyzes the NAD-dependent addition of poly(ADP-ribose) to its nuclear protein substrates such as histones. The assay kit measures the incorporation of biotynylated poly(ADP-ribose) onto histone proteins in a 96-well format.

[2] = tested on: SW620 human colorectal cancer cells; assay: MTT based cell viability assay: potentiation of the growth inhibiting activity of MMS; details: Homo sapiens, SW-620, 120 h, read-out: IC50 (nM), potentiation of the growth inhibiting activity of MMS, SW620 cells, 1.7 μg/ml MMS, 5 days (120 hours), MTT
[3] = tested on: BRCA-2 deficient CAPAN-1 human pancreatic cancer cells; assay: MTT based cell viability assay: growth inhibition of BRCA-2 deficient CAPAN-1 cells; details: 240 h, compound alone, 10 day assay
Source text: Determination of the cell growth inhibiting activity of 1-(3-(4-(pyrimidin-2-yl)piperazine-1-carbonyl)benzyl)quinazoline-2,4(1H,3H)-dione and analogs on BRCA-2 deficient CAPAN-1 pancreatic duck cancer cells using a MTT based cell viability assay
BRCA-deficient cancer cells are sensitive to PARP inhibition. In the presence of PARP inhibitors, BRCA-deficient cancer cells could not grow and eventually will lead to death of cells. BRCA-2 deficient CAPAN-1 human pancreatic cancer cells were used to test the growth inhibiting activity of substituted 1-(arylmethyl)quinazoline-2,4(1H,3H)-diones. Briefly, CAPAN-1 cells are grown and maintained in IMEM medium supplemented with 20% FBS. The assay takes 10 days to finish. On day 1, 6000 CAPAN-1 cells are seeded to each well of a 96-well plate. The cells are incubated at 37° C. in a cell culture incubator overnight. In the next day, serial dilutions of compounds to be tested and reference compound (AZD2281) were prepared with a 1:3 and 1:10 fashion in DMSO. Ten-fold compound solutions were made by mixing 10 μl DMSO serial dilution solutions with 90 μl fresh growth medium. The cell culture medium was removed and 180 μl fresh media with FBS and 20 μl of compound solutions were added to each well. The final concentration of DMSO was 1%. Cells were then returned to the CO2 cell culture incubator and incubated at 37° C. for two days (day 3 and day 4). On day 5, the same procedure as what was done on day 2 was repeated. Cell culture medium was removed and fresh medium containing serial dilutions of compounds or reference compounds were added. Cells were returned to the CO2 cell culture incubator and incubated for two more days. On day 8, same procedure was repeated again and fresh medium containing the testing compounds or reference compounds were added and incubated for an additional 2 days. On day 10, 20 μl of MTT reagent (5 mg/ml) was added to each well of the cell culture plate and incubated for 4 h. The cell culture media was removed and 100 μl DMSO was added to each well. The 96-well cell culture plates were shaked horizontally for 10 min and readed in a Varioskan Flash plate reader (Thermo Fisher Scientific) at 520 and 690 nm. The obtained 520 nm absorbance readings subtracting corresponding 690 nm reading were analyzed using a commercial graphic software (GraphPad Prism 5) and plotted against the Log scale of the compound concentrations.

| SMILES | EC50 [1] [nM] | IC50 (PARP-1 enzyme) [nM] | IC50 [2] [nM] | IC50 [3] [nM] |
| --- | --- | --- | --- | --- |
| O=C(c1cc(Cn2c(=O)[nH]c(=O)c3c(F)cccc32)ccc1F)N1CCN(c2ccccn2)CC1 [Example 135, 5-Fluoro-1-(4-fluoro-3-(4-(pyridin-2-yl)piperazine-1-carbonyl)benzyl)quinazoline-2,4(1H,3H)-dione] | 9.8 | 1.74 | 6.8 | – |
| O=C(c1cc(Cn2c(=O)[nH]c(=O)c3c(F)cccc32)ccc1F)N1CCN(CC2CCCCC2)CC1 [Example 217, 1-(3-(4-(Cyclohexylmethyl)piperazine-1-carbonyl)-4-fluorobenzyl)-5-fluoroquinazoline-2,4(1H,3H)-dione] | 19 | – | 2.5 | 460 |
| O=C(c1cc(F)cc(Cn2c(=O)[nH]c(=O)c3c(F)cccc32)c1)N1CCN(c2ncccn2)CC1 [Example 176, 5-Fluoro-1-(5-fluoro-3-(4-(pyrimidin-2-yl)piperazine-1-carbonyl)benzyl)quinazoline-2,4(1H,3H)-dione] | 10 | – | 15 | 187 |
| O=C(c1cccc(Cn2c(=O)[nH]c(=O)c3cc(F)ccc32)c1)N1CCN(C(=O)C2CCCC2)CC1 [Example 143, 1-(3-(4-(Cyclopentylcarbonyl)piperazine-1-carbonyl)benzyl)-6-fluoroquinazoline-2,4(1H,3H)-dione] | 6 | – | 15 | 73 |
| O=C(c1cccc(Cn2c(=O)[nH]c(=O)c3ccccc32)n1)N1CCN(C(=O)C2CCCC2)CC1 [Example 69, 1-((2-(4-(Cyclopentylcarbonyl)piperazine-1-carbonyl)pyridin-6-yl)methyl)quinazoline-2,4(1H,3H)-dione] | 76 | – | 352 | 1980 |
| O=C(c1cc(Cn2c(=O)[nH]c(=O)c3ccccc32)ccc1F)N1CCN(c2nsc3ccccc23)CC1 [Example 43, 1-(3-(4-(Benzo[d]isothiazol-3-yl)piperazine-1-carbonyl)-4-fluorobenzyl)quinazoline-2,4(1H,3H)-dione] | 18 | – | 51 | 974 |
| O=C(c1cccc(Cn2c(=O)[nH]c(=O)c3ccccc32)c1)N1CCN(C(=O)C2CCCC2)CC1 [Example 14, 1-(3-(4-(Cyclopentylcarbonyl)piperazine-1-carbonyl)benzyl)quinazoline-2,4(1H,3H)-dione] | 39 | 2.3 | 102 | – |
| O=C(c1ccc(F)c(Cn2c(=O)[nH]c(=O)c3ccccc32)c1)N1CCN(c2ccccn2)CC1 [Example 51, 1-(6-Fluoro-3-(4-(pyridin-2-yl)piperazine-1-carbonyl)benzyl)quinazoline-2,4(1H,3H)-dione] | 20 | – | 33 | 402 |
| O=C(c1ccc(F)c(Cn2c(=O)[nH]c(=O)c3cc(F)ccc32)c1)N1CCN(c2ccccn2)CC1 [Example 150, 6-Fluoro-1-(6-fluoro-3-(4-(pyridin-2-yl)piperazine-1-carbonyl)benzyl)quinazoline-2,4(1H,3H)-dione] | 16 | – | 25 | 176 |
| O=C(c1cc(Cn2c(=O)[nH]c(=O)c3c(F)cccc32)ccc1F)N1CCN(C(=O)C2CCCO2)CC1 (stereo not drawn) [Example 210, 5-Fluoro-1-(4-fluoro-3-(4-(tetrahydrofuran-2-carbonyl)piperazine-1-carbonyl)benzyl)quinazoline-2,4(1H,3H)-dione] | 15 | – | 10 | 3440 |
| O=C(c1cccc(Cn2c(=O)[nH]c(=O)c3cc(Cl)ccc32)c1)N1CCN(C(=O)C2CCCC2)CC1 [Example 112, 6-Chloro-1-(3-(4-(cyclopentylcarbonyl)piperazine-1-carbonyl)benzyl)quinazoline-2,4(1H,3H)-dione] | 2.9 | – | 14 | 767 |

Continued, values first:

| EC50 [1] [nM] | IC50 (PARP-1 enzyme) [nM] | IC50 [2] [nM] | IC50 [3] [nM] | SMILES |
| --- | --- | --- | --- | --- |
| 20 | – | 117 | 1050 | O=C(c1cccc(Cn2c(=O)[nH]c(=O)c3c(Cl)cccc32)c1)N1CCN(C(=O)C2CCCC2)CC1 [Example 101, 5-Chloro-1-(3-(4-(cyclopentylcarbonyl)piperazine-1-carbonyl)benzyl)quinazoline-2,4(1H,3H)-dione] |
| 10 | – | 32 | 421 | O=C(c1ccc(F)c(Cn2c(=O)[nH]c(=O)c3ccccc32)c1)N1CCN(C(=O)C2CCCCC2)CC1 [Example 49, 1-(3-(4-(Cyclohexylcarbonyl)piperazine-1-carbonyl)-6-fluorobenzyl)quinazoline-2,4(1H,3H)-dione] |
| 3.8 | – | 22 | 223 | O=C(c1cccc(Cn2c(=O)[nH]c(=O)c3cc(F)ccc32)c1)N1CCN(C(=O)C2CCCCC2)CC1 [Example 142, 1-(3-(4-(Cyclohexylcarbonyl)piperazine-1-carbonyl)benzyl)-6-fluoroquinazoline-2,4(1H,3H)-dione] |
| 6.5 | – | 12 | 146 | O=C(c1cc(Cn2c(=O)[nH]c(=O)c3cc(F)ccc32)ccc1F)N1CCN(c2ccccn2)CC1 [Example 145, 6-Fluoro-1-(4-fluoro-3-(4-(pyridin-2-yl)piperazine-1-carbonyl)benzyl)quinazoline-2,4(1H,3H)-dione] |
| 405 | – | 506 | 3550 | O=C(c1cccc(Cn2c(=O)[nH]c(=O)c3ccc(Cl)cc32)c1)N1CCN(c2ncccn2)CC1 [Example 161, 7-Chloro-1-(3-(4-(pyrimidin-2-yl)piperazine-1-carbonyl)benzyl)quinazoline-2,4(1H,3H)-dione] |
| 2.1 | – | 6.7 | 358 | O=C(c1ccco1)N1CCN(C(=O)c2cc(Cn3c(=O)[nH]c(=O)c4cc(F)ccc43)ccc2F)CC1 [Example 185, 6-Fluoro-1-(4-fluoro-3-(4-(furan-2-carbonyl)piperazine-1-carbonyl)benzyl)quinazoline-2,4(1H,3H)-dione] |
| 11 | – | 34 | 668 | O=C(c1ccccc1)N1CCN(C(=O)c2cc(Cn3c(=O)[nH]c(=O)c4ccccc43)ccc2F)CC1 [Example 45, 1-(3-(4-Benzoylpiperazine-1-carbonyl)-4-fluorobenzyl)quinazoline-2,4(1H,3H)-dione] |
| 3.2 | – | 9.5 | 389 | O=C(c1ccco1)N1CCN(C(=O)c2cc(Cn3c(=O)[nH]c(=O)c4c(F)cccc43)ccc2F)CC1 [Example 172, 5-Fluoro-1-(4-fluoro-3-(4-(furan-2-carbonyl)piperazine-1-carbonyl)benzyl)quinazoline-2,4(1H,3H)-dione] |
| 17 | – | 9.6 | 170 | O=C(c1cccc(Cn2c(=O)[nH]c(=O)c3cc(Cl)ccc32)c1)N1CCN(C(=O)C2CCCCC2)CC1 [Example 113, 6-Chloro-1-(3-(4-(cyclohexylcarbonyl)piperazine-1-carbonyl)benzyl)quinazoline-2,4(1H,3H)-dione] |
| 8.2 | – | 56 | 168 | O=C(c1ccc(F)c(Cn2c(=O)[nH]c(=O)c3ccccc32)c1)N1CCN(C(=O)C2CCCC2)CC1 [Example 48, 1-(3-(4-(Cyclopentylcarbonyl)piperazine-1-carbonyl)-6-fluorobenzyl)quinazoline-2,4(1H,3H)-dione] |
